What was measured:
Format in all cases: in vivo
Zea mays (ZEAMX) [1] = assay: Pre-emergence Test (Table B1); set-up: key: 5=81-100%; 4=61-80%; 3=41-60%; 2=21-40%; 1=0-20%; 0=inactive; conditions: 1000 g/ha, evaluated after 13 days
Zea mays (ZEAMX) [2] = assay: Post-emergence Test (Table B2); set-up: key: 5=81-100%; 4=61-80%; 3=41-60%; 2=21-40%; 1=0-20%; 0=inactive; conditions: evaluated after 13 days
Protocol: (§1) Seeds of a variety of test species are sown in standard soil in pots (Amaranthus palmeri (AMAPA), Setaria faberi (SETFA), Echinochloa crus-galli (ECHCG), (Amaranthus retroflexus (AMARE), Zea mays (ZEAMX), Ipomoea hederacea (IPOHE)). After 8 days cultivation under controlled conditions in a glasshouse (at 24° C./16° C., day/night; 14 hours light; 65% humidity), the plants are sprayed with an aqueous spray solution derived from the formulation of the technical active ingredient in acetone/water (50:50) solution containing 0.5% Tween 20 (polyoxyethelyene sorbitan monolaurate, CAS RN 9005-64-5). Compounds are applied at 1000 g/ha unless otherwise stated. The test plants are then grown in a glasshouse under controlled conditions in a glasshouse (at 24° C./16° C., day/night; 14 hours light; 65% humidity) and watered twice daily. After 13 days the test is evaluated for the percentage damage caused to the plant.

[3] = tested on: Ipomoea hederacea (IPOHE); assay: Post-emergence Test (Table B2); set-up: key: 5=81-100%; 4=61-80%; 3=41-60%; 2=21-40%; 1=0-20%; 0=inactive; conditions: evaluated after 13 days
Protocol: as §1

[4] = tested on: Echinochloa crus-galli (ECHCG); assay: Post-emergence Test (Table B2); set-up: key: 5=81-100%; 4=61-80%; 3=41-60%; 2=21-40%; 1=0-20%; 0=inactive; conditions: evaluated after 13 days
Protocol: as §1

[5] = tested on: Ipomoea hederacea (IPOHE); assay: Pre-emergence Test (Table B1); set-up: key: 5=81-100%; 4=61-80%; 3=41-60%; 2=21-40%; 1=0-20%; 0=inactive; conditions: 1000 g/ha, evaluated after 13 days
[6] = tested on: Echinochloa crus-galli (ECHCG); assay: Pre-emergence Test (Table B1); set-up: key: 5=81-100%; 4=61-80%; 3=41-60%; 2=21-40%; 1=0-20%; 0=inactive; conditions: 1000 g/ha, evaluated after 13 days
Setaria faberi (SETFA) [7] = assay: Pre-emergence Test (Table B1); conditions: 1000 g/ha, evaluated after 13 days
[8] = tested on: Amaranthus retroflexus (AMARE); assay: Pre-emergence Test (Table B1); conditions: 1000 g/ha, evaluated after 13 days
[9] = tested on: Amaranthus palmeri (AMAPA); assay: Post-emergence Test (Table B2); conditions: evaluated after 13 days
Protocol: as §1

Setaria faberi (SETFA) [10] = assay: Post-emergence Test (Table B2); conditions: evaluated after 13 days
Protocol: as §1

[11] = tested on: Amaranthus retroflexus (AMARE); assay: Post-emergence Test (Table B2); conditions: evaluated after 13 days
Protocol: as §1

[12] = tested on: Amaranthus palmeri (AMAPA); assay: Pre-emergence Test (Table B1); conditions: 1000 g/ha, evaluated after 13 days
[13] = lower rate of 250 g per hectare

Structure (SMILES) | percentage damage caused to the plant, ZEAMX (Zea mays (ZEAMX) [1]) | percentage damage caused to the plant, ZEAMX (Zea mays (ZEAMX) [2]; 1000 g/ha) | percentage damage caused to the plant, IPOHE ([3]; 1000 g/ha) | percentage damage caused to the plant, ECHCG ([4]; 1000 g/ha) | percentage damage caused to the plant, IPOHE [5] | percentage damage caused to the plant, ECHCG [6] | percentage damage caused to the plant, SETFA (Setaria faberi (SETFA) [7]) | percentage damage caused to the plant, AMARE [8] | percentage damage caused to the plant, AMAPA ([9]; 1000 g/ha) | percentage damage caused to the plant, SETFA (Setaria faberi (SETFA) [10]; 1000 g/ha) | percentage damage caused to the plant, AMARE ([11]; 1000 g/ha) | percentage damage caused to the plant, AMAPA [12] | percentage damage caused to the plant, ZEAMX (Zea mays (ZEAMX) [2]; [13]) | percentage damage caused to the plant, IPOHE [3, 13] | percentage damage caused to the plant, ECHCG [4, 13] | percentage damage caused to the plant, AMAPA [9, 13] | percentage damage caused to the plant, SETFA (Setaria faberi (SETFA) [10]; [13]) | percentage damage caused to the plant, AMARE [11, 13]
C=C(C)COC(=O)c1cc(-c2c(C)n(CC)c(-c3ccc(Cl)c(Cl)c3)c(C(=O)O)c2=O)c(F)cc1Cl [Compound 1, 5-[4-chloro-2-fluoro-5-(2-methylallyloxycarbonyl)phenyl]-2-(3,4-dichlorophenyl)-1-ethyl-6-methyl-4-oxo-pyridine-3-carboxylic acid] | 0 | 2 (2=21-40%) | 2 (2=21-40%) | 5 (5=81-100%) | 2 (2=21-40%) | 1 (1=0-20%) | 4 (4=61-80%) | 5 (5=81-100%) | 5 (5=81-100%) | 4 (4=61-80%) | 5 (5=81-100%) | 5 (5=81-100%) |  |  |  |  |  | 
C#CCOC(=O)c1cc(-c2c(C)n(CC)c(-c3ccc(Cl)c(Cl)c3)c(C(=O)O)c2=O)c(F)cc1Cl [Compound 2, 5-(4-chloro-2-fluoro-5-prop-2-ynoxycarbonyl-phenyl)-2-(3,4-dichlorophenyl)-1-ethyl-6-methyl-4-oxo-pyridine-3-carboxylic acid] | 0 | 5 (5=81-100%) | 4 (4=61-80%) | 4 (4=61-80%) | 0 | 0 | 1 (1=0-20%) | 5 (5=81-100%) | 5 (5=81-100%) | 5 (5=81-100%) | 5 (5=81-100%) | 5 (5=81-100%) |  |  |  |  |  | 
C=CCOC(=O)c1cc(-c2c(C)n(CC)c(-c3ccc(Cl)c(Cl)c3)c(C(=O)O)c2=O)c(F)cc1Cl [Compound 3, 5-(5-allyloxycarbonyl-4-chloro-2-fluoro-phenyl)-2-(3,4-dichlorophenyl)-1-ethyl-6-methyl-4-oxo-pyridine-3-carboxylic acid] | 0 | 4 (4=61-80%) | 4 (4=61-80%) | 5 (5=81-100%) | 2 (2=21-40%) | 0 | 1 (1=0-20%) | 5 (5=81-100%) | 5 (5=81-100%) | 5 (5=81-100%) | 5 (5=81-100%) | 5 (5=81-100%) |  |  |  |  |  | 
C=CC(C)OC(=O)c1ccc(F)c(-c2c(C)n(CC)c(-c3ccc(Cl)c(Cl)c3)c(C(=O)O)c2=O)c1 (stereo not drawn) [Compound 5, 2-(3,4-dichlorophenyl)-1-ethyl-5-[2-fluoro-5-(1-methylallyloxycarbonyl)phenyl]-6-methyl-4-oxo-pyridine-3-carboxylic acid] |  |  |  |  |  |  |  |  |  |  |  |  | 2 (2=21-40%) | 1 (1=0-20%) | 0 | 3 (3=41-60%) | 1 (1=0-20%) | 2 (2=21-40%)
CCn1c(C)c(-c2cc(C(=O)OC(C)CN(C)C)ccc2F)c(=O)c(C(=O)O)c1-c1ccc(Cl)c(Cl)c1 (stereo not drawn) [Compound 6, 2-(3,4-dichlorophenyl)-5-[5-[2-(dimethylamino)-1-methyl-ethoxy]carbonyl-2-fluoro-phenyl]-1-ethyl-6-methyl-4-oxo-pyridine-3-carboxylic acid] |  | 1 (1=0-20%) | 0 | 1 (1=0-20%) |  |  |  |  | 4 (4=61-80%) | 1 (1=0-20%) | 3 (3=41-60%) |  |  |  |  |  |  | 

Source: patent publication US20260060250A1, “HERBICIDAL PYRIDONE DERIVATIVES” (SYNGENTA CROP PROTECTION AG, priority 2022, published 2026)
